From patent US4847268A, “8-phenylthio-tetrahydroquinolines and anti-allergic use thereof” (Roussel Uclaf, priority 1986, dated 1989)
Where a name gives a salt, the structure may show the parent alone.

How the values were obtained:
5-lipoxygenase = target: T1, 5-lipoxygenase (Rattus norvegicus, UniProt P12527); test: 5-LIPOX: inhibition of Ca++ ionophore (A23187)-induced release of 5-lipoxygenase products from [14C]-arachidonic acid pre-labelled rat peritoneal neutrophils; format: cell-based; conditions: A23187-induced release of leukotriene D4 and 5-HETE, determined graphically from dose-response curves, read-out: 5-LIPOX: concentration of test compound causing 50% inhibition of control response
T1 construct: pre-labelled rat peritoneal neutrophils; endogenous in cells; host or cells: rat peritoneal neutrophils
T1 sequence (P12527 1-673): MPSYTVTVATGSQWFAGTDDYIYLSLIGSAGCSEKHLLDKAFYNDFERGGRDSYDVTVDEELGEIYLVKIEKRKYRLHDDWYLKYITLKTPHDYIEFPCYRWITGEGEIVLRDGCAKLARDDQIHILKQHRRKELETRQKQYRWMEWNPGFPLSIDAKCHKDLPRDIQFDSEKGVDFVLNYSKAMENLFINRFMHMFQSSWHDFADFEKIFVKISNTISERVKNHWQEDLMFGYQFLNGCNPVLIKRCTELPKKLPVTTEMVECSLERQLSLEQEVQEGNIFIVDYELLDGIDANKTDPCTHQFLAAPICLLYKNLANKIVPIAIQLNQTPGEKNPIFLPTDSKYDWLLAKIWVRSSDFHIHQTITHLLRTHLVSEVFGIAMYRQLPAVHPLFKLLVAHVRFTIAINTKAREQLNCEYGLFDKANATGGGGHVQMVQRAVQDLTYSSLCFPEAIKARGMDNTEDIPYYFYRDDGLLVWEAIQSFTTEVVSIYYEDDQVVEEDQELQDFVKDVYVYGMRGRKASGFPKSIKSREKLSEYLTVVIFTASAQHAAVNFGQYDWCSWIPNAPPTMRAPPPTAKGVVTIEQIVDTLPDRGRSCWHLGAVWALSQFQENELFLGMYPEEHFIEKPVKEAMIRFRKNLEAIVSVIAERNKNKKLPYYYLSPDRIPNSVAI
Source text: A. 5-LIPOX Inhibition of the Ca^++ ionophore (A23187)-induced release of 5-lipoxygenase products ([…] and 5-HETE) from [^14 C]-arachidonic acid pre-labelled rat peritoneal neutrophils. Assayed by a modification of the method reported by Ahnfelt-Ronne et al [Biochemical Pharmacology, Vol. 31, No. 16, pp. 2619-2624 (1982)]. The data presented are micromolar concentrations of test compound causing 50% inhibition of control response determined graphically from dose-response curves.

LTD4 receptor = target: T2, LTD4 receptor (Cavia porcellus, UniProt Q2NNR5); test: LTD4 RECEPTOR: inhibition of specific binding of [3H]-LTD4 to a membrane preparation of guinea-pig lung tissue; conditions: [3H]-LTD4, guinea-pig lung membrane preparation; determined graphically from dose-response curves; read-out: LTD4 receptor: concentration of test compound causing 50% inhibition of specific binding
T2 construct: a membrane preparation of guinea-pig lung tissue; from tissue; host or cells: guinea-pig lung membranes
T2 sequence (Q2NNR5 1-340): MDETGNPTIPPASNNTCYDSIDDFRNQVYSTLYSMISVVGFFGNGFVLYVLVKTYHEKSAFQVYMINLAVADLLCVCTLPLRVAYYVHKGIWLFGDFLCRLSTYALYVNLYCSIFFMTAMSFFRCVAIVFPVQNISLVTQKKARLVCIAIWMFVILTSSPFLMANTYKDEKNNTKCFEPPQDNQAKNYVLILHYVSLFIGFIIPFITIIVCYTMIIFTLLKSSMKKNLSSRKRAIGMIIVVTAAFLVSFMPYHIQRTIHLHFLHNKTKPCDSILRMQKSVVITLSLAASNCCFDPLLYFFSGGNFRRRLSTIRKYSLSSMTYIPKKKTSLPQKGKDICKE
Source text: B. LTD4 RECEPTOR Inhibition of the specific binding of [^3 H]-LTD4 to a membrane preparation of guinea-pig lung tissue assayed by a modification of a method reported by Bruns et al [Life Sciences, Vol. 33, pp. 645-653 (1983)]. The data presented are micromolar concentrations of test compound causing 50% inhibition of specific binding determined graphically from dose-response curves.

Clc1ccc(SC2CCCc3cccnc32)cc1 (stereo not shown) [Example 1, 8-(4-chlorophenylthio)-5,6,7,8-tetrahydroquinoline hydrochloride]
IC50 (5-lipoxygenase): 4.2 µM
IC50 (LTD4 receptor): 22.4 µM

N#Cc1ccc(SC2CCCc3cccnc32)cc1 (stereo not shown) [Example 2, 4-(5,6,7,8-tetrahydroquinoline-8-ylthio)-benzonitrile]
IC50 (5-lipoxygenase): 31 µM

O=[N+]([O-])c1ccc(SC2CCCc3cccnc32)cc1 (stereo not shown) [Example 4, 8-(4-nitrophenylthio)-5,6,7,8-tetrahydroquinoline hydrochloride]
IC50 (5-lipoxygenase): 12.6 µM
IC50 (LTD4 receptor): 26.3 µM

Cc1ccc(SC2CCCc3cccnc32)cc1 (stereo not shown) [Example 5, 8-(4-methylphenylthio)-5,6,7,8-tetrahydroquinoline hydrochloride]
IC50 (5-lipoxygenase): 3 µM
IC50 (LTD4 receptor): 23.4 µM

c1cnc2c(c1)CCCC2Sc1cccc2ccccc12 (stereo not shown) [Example 6, 8-(1-naphthylthio)-5,6,7,8-tetrahydroquinoline]
IC50 (5-lipoxygenase): 1.7 µM
IC50 (LTD4 receptor): 52.5 µM

Nc1ccc(SC2CCCc3cccnc32)cc1 (stereo not shown) [Example 7, 8-(4-aminophenylthio)-5,6,7,8-tetrahydroquinoline]
IC50 (5-lipoxygenase): 25 µM
IC50 (LTD4 receptor): > 100 µM

Oc1ccc(SC2CCCc3cccnc32)cc1 (stereo not shown) [Example 8, 8-(4-hydroxyphenylthio)-5,6,7,8-tetrahydroquinoline]
IC50 (5-lipoxygenase): 14.1 µM

c1cnc2c(c1)CCCC2Sc1ccc2ccccc2c1 (stereo not shown) [Example 9, 8-(2-naphthylthio)-5,6,7,8-tetrahydroquinoline hydrochloride]
IC50 (5-lipoxygenase): 2.3 µM

CCCCc1ccc(SC2CCCc3cccnc32)cc1 (stereo not shown) [Example 10, 8-(4-n-butylphenylthio)-5,6,7,8-tetrahydroquinoline hydrochloride]
IC50 (5-lipoxygenase): 1.9 µM

CCCCCC(O)c1cccc(SC2CCCc3cccnc32)c1 (stereo not shown) [Example 11, 8[3-(1-hydroxyhexyl)-phenylthio]-5,6,7,8-tetrahydroquinoline]
IC50 (5-lipoxygenase): 5.6 µM

NS(=O)(=O)c1ccc(SC2CCCc3cccnc32)cc1 (stereo not shown) [Example 12, 4-(5,6,7,8-tetrahydroquinoline-8-ylthio)-benzenesulfonamide]
IC50 (5-lipoxygenase): 26 µM

COc1ccc(SC2CCCc3cccnc32)cc1 (stereo not shown) [Example 14, 8-(4-methoxyphenylthio)-5,6,7,8-tetrahydroquinoline hydrochloride]
IC50 (5-lipoxygenase): 13.2 µM
IC50 (LTD4 receptor): 16.6 µM

CCc1ccc(SC2CCCc3cccnc32)cc1 (stereo not shown) [Example 15, 8-(4-ethylphenylthio)-5,6,7,8-tetrahydroquinoline hydrochloride]
IC50 (5-lipoxygenase): 4 µM

O=C(O)c1ccc(SC2CCCc3cccnc32)cc1 (stereo not shown) [Example 16, 4-(5,6,7,8-tetrahydroquinoline-8-ylthio)-benzoic acid]
IC50 (5-lipoxygenase): > 100 µM

CCCCOc1ccc(SC2CCCc3cccnc32)cc1 (stereo not shown) [Example 17, 8-(4-n-Butoxyphenylthio)-5,6,7,8-tetrahydroquinoline hydrochloride]
IC50 (5-lipoxygenase): 3.7 µM

CCOc1ccc(SC2CCCc3cccnc32)cc1 (stereo not shown) [Example 18, 8-(4-ethoxyphenylthio)-5,6,7,8-tetrahydroquinoline hydrochloride]
IC50 (5-lipoxygenase): 11.2 µM

CC(=O)Oc1ccc(SC2CCCc3cccnc32)cc1 (stereo not shown) [Example 19, 8-(4-acetoxyphenylthio)-5,6,7,8-tetrahydroquinoline hydrochloride]
IC50 (5-lipoxygenase): 45 µM

COC(=O)c1ccc(SC2CCCc3cccnc32)cc1 (stereo not shown) [Example 20, Methyl 4-(5,6,7,8-tetrahydroquinoline-8-ylthio)-benzoate hydrochloride]
IC50 (5-lipoxygenase): 18.6 µM

O=[N+]([O-])c1cc(SC2CCCc3cccnc32)ccc1O (stereo not shown) [Example 21, 8-(4-hydroxy-3-nitrophenylthio)-5,6,7,8-tetrahydroquinoline]
IC50 (5-lipoxygenase): 33 µM
